From ChEMBL document CHEMBL1158921, “Antitumor agents, 116. Cytotoxic triterpenes from Maytenus diversifolia” (1990)
Values after ≈ are worked out from the molar mass of the structure shown. Active and inactive are the calls of the source. The calls are words filed in the database; no cut-off is given here.

Key:
Assay type in all cases: functional
[1] = system: A549; assay: Cytotoxicity against human A549 cells; conditions: for EC50: read-out: ED50 (the source's name)
[2] = system: L1210; assay: Cytotoxicity against mouse L1210 cells
[3] = system: KB; assay: Cytotoxicity against human KB cells
[4] = read-out: ED50 (the source's name)

C[C@H]1C(=O)CC[C@@H]2[C@]1(C)CC[C@H]1[C@@]2(C)CC[C@@]2(C)[C@@H]3CC(C)(C)CC[C@]3(C(=O)O)CC[C@]12C
EC50 [1]: 1.18 µg/mL (≈ 2.58 µM)
EC50 [2, 4]: 2.95 µg/mL (≈ 6.46 µM)
EC50 [3, 4]: 3.7 µg/mL (≈ 8.1 µM)

C[C@H]1C(=O)CC[C@@H]2[C@]1(C)CC[C@H]1[C@@]2(C)CC[C@@]2(C)[C@@H]3C[C@](C)(CO)CC[C@]3(CO)CC[C@]12C
EC50 [1]: 0.64 µg/mL (≈ 1.4 µM)

C[C@H]1[C@H](C)CC[C@]2(C(=O)O)CC[C@]3(C)C(=CC[C@@H]4[C@@]5(C)CC[C@H](O)C(C)(C)[C@@H]5CC[C@]43C)[C@H]12
Activity [1]: Active
Activity [2]: Active
Activity [3]: Active

C[C@H]1C(=O)CC[C@@H]2[C@]1(C)CC[C@H]1[C@@]2(C)CC[C@@]2(C)[C@@H]3C[C@](C)(C(=O)O)CC[C@]3(C)CC[C@]12C [MAYTENOIC ACID]
EC50 [1]: 0.21 µg/mL (≈ 0.46 µM)
